Patent US10287255B2, “Compounds as histone deacetylase 6 inhibitors and pharmaceutical compositions comprising the same” (CHONG KUN DANG PHARMACEUTICAL CORP., priority 2014, dated 2019)

Assays:
[1] = molecular target: T1, human recombinant HDAC1 (Homo sapiens, UniProt Q13547); experiment: HDAC1 enzyme activity inhibition assay (in vitro, fluorimetric); assay type: biochemical; details: human recombinant HDAC1, fluorimetric kit, 30° C. 60 minutes
T1 construct: purchased Enzo Life Science BML-SE456
T1 sequence (Q13547 whole entry): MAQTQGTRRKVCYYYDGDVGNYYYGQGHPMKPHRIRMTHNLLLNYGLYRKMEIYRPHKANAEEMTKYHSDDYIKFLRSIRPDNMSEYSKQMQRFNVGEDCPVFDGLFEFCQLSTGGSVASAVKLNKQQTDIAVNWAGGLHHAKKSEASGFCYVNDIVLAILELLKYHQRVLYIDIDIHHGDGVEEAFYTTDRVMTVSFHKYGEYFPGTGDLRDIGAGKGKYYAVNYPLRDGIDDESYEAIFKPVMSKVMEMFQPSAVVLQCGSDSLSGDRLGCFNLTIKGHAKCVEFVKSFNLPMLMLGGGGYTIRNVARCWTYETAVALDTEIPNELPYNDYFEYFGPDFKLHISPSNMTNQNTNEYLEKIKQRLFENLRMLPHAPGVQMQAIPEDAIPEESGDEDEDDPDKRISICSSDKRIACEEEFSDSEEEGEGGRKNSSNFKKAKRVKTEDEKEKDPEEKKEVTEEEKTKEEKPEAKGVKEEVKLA
How it was run: (§1)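 Human recombinant enzyme (0.3 μg for HDAC1) reacted with 10 μM Fluor de Lys-SIRT1 substrate and 5-fold compound dilutions at 30 °C for 60 min, then developer for 30 min. Fluorescence read at Ex 360/Em 460; IC50 calculated. HDAC6 run by the same protocol.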

[2] = molecular target: T2, human recombinant HDAC6 (Homo sapiens, UniProt Q9UBN7); experiment: HDAC6 enzyme activity inhibition assay (in vitro, fluorimetric); assay type: biochemical; details: for HDAC6 selectivity (fold): HDAC6 selectivity over HDAC1; for IC50: human recombinant HDAC6, fluorimetric kit, same protocol as HDAC1
T2 construct: purchased Calbiochem 382180
T2 sequence (Q9UBN7 1-1215): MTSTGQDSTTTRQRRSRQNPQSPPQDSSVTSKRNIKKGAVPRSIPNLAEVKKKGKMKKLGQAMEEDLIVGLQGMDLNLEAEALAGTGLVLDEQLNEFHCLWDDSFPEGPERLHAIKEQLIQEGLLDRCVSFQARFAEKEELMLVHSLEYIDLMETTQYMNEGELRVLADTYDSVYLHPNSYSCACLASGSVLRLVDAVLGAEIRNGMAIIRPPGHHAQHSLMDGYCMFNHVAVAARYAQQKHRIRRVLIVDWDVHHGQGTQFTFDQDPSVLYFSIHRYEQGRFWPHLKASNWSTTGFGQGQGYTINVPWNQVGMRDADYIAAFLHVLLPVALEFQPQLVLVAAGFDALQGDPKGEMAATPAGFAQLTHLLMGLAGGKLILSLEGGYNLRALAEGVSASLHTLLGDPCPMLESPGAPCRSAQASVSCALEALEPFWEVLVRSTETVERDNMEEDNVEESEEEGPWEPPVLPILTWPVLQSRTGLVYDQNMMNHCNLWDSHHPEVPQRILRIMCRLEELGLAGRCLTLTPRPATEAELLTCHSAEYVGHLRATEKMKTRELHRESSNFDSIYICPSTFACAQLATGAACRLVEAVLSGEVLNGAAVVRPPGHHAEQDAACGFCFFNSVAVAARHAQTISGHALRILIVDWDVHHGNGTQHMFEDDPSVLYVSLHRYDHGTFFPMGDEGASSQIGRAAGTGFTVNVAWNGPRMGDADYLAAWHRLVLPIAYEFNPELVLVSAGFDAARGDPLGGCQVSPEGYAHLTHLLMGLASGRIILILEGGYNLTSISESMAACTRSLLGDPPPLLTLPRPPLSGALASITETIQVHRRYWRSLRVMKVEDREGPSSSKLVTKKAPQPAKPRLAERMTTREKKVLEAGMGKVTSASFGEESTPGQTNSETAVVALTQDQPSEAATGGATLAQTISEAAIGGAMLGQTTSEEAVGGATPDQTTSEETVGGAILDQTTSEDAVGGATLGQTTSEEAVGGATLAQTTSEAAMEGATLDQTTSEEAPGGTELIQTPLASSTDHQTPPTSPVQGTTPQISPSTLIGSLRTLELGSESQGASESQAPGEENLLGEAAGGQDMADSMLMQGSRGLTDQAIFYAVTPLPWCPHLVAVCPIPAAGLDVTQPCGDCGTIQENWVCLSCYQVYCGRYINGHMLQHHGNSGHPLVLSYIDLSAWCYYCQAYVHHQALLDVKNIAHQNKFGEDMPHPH
How it was run: as §1

SMILES	IC50 [1]	HDAC6 selectivity (fold) [2]	IC50 [2]
C[C@@H]1CN(C(=O)c2cccc(CN3CCCC3)c2)C[C@H](C)N1Cc1ccc(/C=C/C(=O)NO)cc1 [Compound 480, (E)-3-(4-(((2S,6R)-2,6-dimethyl-4-(3-(pyrrolidin-1-ylmethyl)benzoyl)piperazin-1-yl)methyl)phenyl)-N-hydroxyacrylamide]	1000 nM	2 fold	467 nM
C[C@@H]1CN(CC(C)(C)F)C[C@H](C)N1Cc1ccc(C(=O)NO)cc1 [Compound 193, 4-(((2S,6R)-4-(2-fluoro-2-methylpropyl)-2,6-dimethylpiperazin-1-yl)methyl)-N-hydroxybenzamide]	16300 nM	60 fold	271 nM
C[C@@H]1CN(C(=O)c2cccc(C3=CCOCC3)c2)C[C@H](C)N1Cc1ccc(C(=O)NO)cc1 [Compound 259, 4-(((2S,6R)-4-(3-(3,6-dihydro-2H-pyran-4-yl)benzoyl)-2,6-dimethylpiperazin-1-yl)methyl)-N-hydroxybenzamide]	2500 nM	6 fold	400 nM
C[C@@H]1CN(Cc2ccc(C(=O)NO)cc2)C[C@H](C)N1C(=O)Cc1cccc(C(F)(F)F)c1 [Compound 223, 4-(((3R,5S)-3,5-dimethyl-4-(2-(3-(trifluoromethyl)phenyl)acetyl)piperazin-1-yl)methyl)-N-hydroxybenzamide]	900 nM	8 fold	118 nM
CC(c1ccc(C(=O)NO)cc1)N1C[C@@H](C)N(Cc2ccccc2)[C@@H](C)C1 (stereo partly drawn) [Compound 219, 4-(1-((3R,5S)-4-benzyl-3,5-dimethylpiperazin-1-yl)ethyl)-N-hydroxybenzamide]	> 10000 nM	>59 fold	170 nM
C[C@@H]1CN(Cc2ccc(C(=O)NO)cc2)C[C@H](C)N1Cc1ccc(CN2CC[C@@H](F)C2)cc1 [Compound 411, 4-(((3R,5S)-4-(4-(((R)-3-fluoropyrrolidin-1-yl)methyl)benzyl)-3,5-dimethylpiperazin-1-yl)methyl)-N-hydroxybenzamide]	4300 nM	538 fold	8 nM
C[C@@H]1CN(Cc2ccccc2Cl)C[C@H](C)N1Cc1ccc(C(=O)NO)cc1 [Compound 118, 4-(((2S,6R)-4-(2-chlorobenzyl)-2,6-dimethylpiperazin-1-yl)methyl)-N-hydroxybenzamide]	5500 nM	48 fold	113 nM
C[C@@H]1CN(Cc2ccc(C(=O)NO)cc2)C[C@H](C)N1C(=O)c1cccc(-c2cccnc2)c1 [Compound 246, 4-(((3R,5S)-3,5-dimethyl-4-(3-(pyridin-3-yl)benzoyl)piperazin-1-yl)methyl)-N-hydroxybenzamide]	3400 nM	26 fold	129 nM
C[C@@H]1CN(Cc2ccc(-c3ccco3)cc2)C[C@H](C)N1Cc1ccc(/C=C/C(=O)NO)cc1 [Compound 477, (E)-3-(4-(((2S,6R)-4-(4-(furan-2-yl)benzyl)-2,6-dimethylpiperazin-1-yl)methyl)phenyl)-N-hydroxyacrylamide]	2700 nM	11 fold	253 nM
C[C@@H]1CN(Cc2ccc(C(=O)NO)cc2)C[C@H](C)N1Cc1cc(F)c(F)cc1F [Compound 213, 4-(((3R,5S)-3,5-dimethyl-4-(2,4,5-trifluorobenzyl)piperazin-1-yl)methyl)-N-hydroxybenzamide]	> 10000 nM	>29 fold	349 nM
C[C@@H]1CN(C(=O)Cc2cccc(C3=CCOCC3)c2)C[C@H](C)N1Cc1ccc(C(=O)NO)cc1 [Compound 252, 4-(((2S,6R)-4-(2-(3-(3,6-dihydro-2H-pyran-4-yl)phenyl)acetyl)-2,6-dimethylpiperazin-1-yl)methyl)-N-hydroxybenzamide]	17500 nM	79 fold	221 nM
C[C@@H]1CN(Cc2ccc(C(=O)NO)cc2)C[C@H](C)N1C(=O)c1ccncc1 [Compound 405, N-hydroxy-4-(((3R,5S)-4-isonicotinoyl-3,5-dimethylpiperazin-1-yl)methyl)benzamide]	4300 nM	17 fold	248 nM
C[C@@H]1CN(Cc2ccc(C(=O)NO)cn2)C[C@H](C)N1Cc1ccccc1 [Compound 194, 6-(((3R,5S)-4-benzyl-3,5-dimethylpiperazin-1-yl)methyl)-N-hydroxynicotinamide]	24800 nM	303 fold	82 nM
C[C@@H]1CN(C(=O)Nc2cccc(-n3cccc3)c2)C[C@H](C)N1Cc1ccc(C(=O)NO)cc1 [Compound 186, (3R,5S)-N-(3-(1 H-pyrrol-1-yl)phenyl)-4-(4-(hydroxycarbamoyl)benzyl)-3,5-dimethylpiperazine-1-carboxamide]	300 nM	65 fold	5 nM
C[C@@H]1CN(Cc2ccc(C(=O)NO)cc2)C[C@H](C)N1C(=O)C1CCCO1 (stereo partly drawn) [Compound 402, 4-(((3R,5S)-3,5-dimethyl-4-(tetrahydrofuran-2-carbonyl)piperazin-1-yl)methyl)-N-hydroxybenzamide]	5200 nM	32 fold	161 nM
CCN(CC)Cc1cccc(CN2C[C@@H](C)N(Cc3ccc(C(=O)NO)cc3)[C@@H](C)C2)c1 [Compound 478, 4-(((2S,6R)-4-(3-((diethylamino)methyl)benzyl)-2,6-dimethylpiperazin-1-yl)methyl)-N-hydroxybenzamide]	6570 nM	10 fold	640 nM
C[C@@H]1CN(Cc2ccc(C(=O)NO)cc2)C[C@H](C)N1Cc1cccc(CN2CCN(CC(F)(F)F)CC2)c1 [Compound 453, 4-(((3R,5S)-3,5-dimethyl-4-(3-((4-(2,2,2-trifluoroethyl)piperazin-1-yl)methyl)benzyl)piperazin-1-yl)methyl)-N-hydroxybenzamide]	11900 nM	154 fold	77 nM
C[C@@H]1CN(Cc2ccc(/C=C/C(=O)NO)cc2)C[C@H](C)N1C(=O)c1ccco1 [Compound 322, (E)-3-(4-(((3R,5S)-4-(furan-2-carbonyl)-3,5-dimethylpiperazin-1-yl)methyl)phenyl)-N-hydroxyacrylamide]	1100 nM	6 fold	175 nM
C[C@@H]1CN(Cc2ccc(C(=O)NO)cc2)C[C@H](C)N1C(=O)c1ccc(CN2CCN(S(C)(=O)=O)CC2)cc1 [Compound 463, 4-(((3R,5S)-3,5-dimethyl-4-(4-((4-(methylsulfonyl)piperazin-1-yl)methyl)benzoyl)piperazin-1-yl)methyl)-N-hydroxybenzamide]	4700 nM	18 fold	256 nM
C[C@@H]1CN(Cc2ccc(C(=O)NO)cc2)C[C@H](C)N1C(=O)Cc1cccc(Cl)c1 [Compound 224, 4-(((3R,5S)-4-(2-(3-chlorophenyl)acetyl)-3,5-dimethylpiperazin-1-yl)methyl)-N-hydroxybenzamide]	1700 nM	14 fold	120 nM
CCN(CC)Cc1cccc(C(=O)N2C[C@@H](C)N(Cc3ccc(/C=C/C(=O)NO)cc3)[C@@H](C)C2)c1 [Compound 487, (E)-3-(4-(((2S,6R)-4-(3-((diethylamino)methyl)benzoyl)-2,6-dimethylpiperazin-1-yl)methyl)phenyl)-N-hydroxyacrylamide]	1100 nM	4 fold	296 nM
C[C@@H]1CN(Cc2ccc(C(=O)NO)cc2)C[C@H](C)N1C(=O)c1cccc(C2=CCC(C)(C)CC2)c1 [Compound 247, 4-(((3R,5S)-4-(4′,4′-dimethyl-2′,3′,4′,5′-tetrahydro-[1,1′-biphenyl]-3-carbonyl)-3,5-dimethylpiperazin-1-yl)methyl)-N-hydroxybenzamide]	13300 nM	30 fold	441 nM
